Test results as given in patent US10975060B2, “High relaxivity gadolinium chelate compounds for use in magnetic resonance imaging” (BAYER PHARMA AKTIENGESELLSCHAFT, priority 2016, dated 2021).
Where two headings read alike, the source gives them in different places.

Columns and labels:
[1] = Pharmacokinetic parameters of blood plasma levels after i.v. bolus in male rats (three compartment model); format: in vivo, rats (Han-Wistar); details: i.v. bolus 0.1 mmol Gd/kg, mean, n=3
Experimental: Pharmacokinetic parameters of Example 6 were determined in male rats (Han-Wistar, 235-270 g, n=3). The compound was administered as a sterile aqueous solution (53.8 mmol Gd/L) as a bolus in the tail vein of the animals. The dose was 0.1 mmol Gd/kg. Blood was sampled 1, 3, 5, 10, 15, 30, 60, 90, 120, 240, 360, 480, and 1440 min post injection and the Gd concentration was determined by Inductively Coupled Plasma Mass Spectrometry (ICP-MS Agilent 7500a, Waldbronn, Germany). The blood level was converted to plasma concentrations by division by 0.625 (plasma fraction of rat blood, assuming strictly extracellular distribution). As a control, 3 animals (Han-Wistar, 248-289 g), were treated in the same way with Reference Compound 1 (Gadovist®), a low molecular weight contrast agent.
The fit of the obtained data to a three compartment model (Phoenix-WinNonlin) yielded the pharmacokinetic parameters which are shown in Table 3.

[2] = Contrast-enhanced magnetic resonance angiography (CE-MRA) at 1.5 T, intraindividual comparison; format: in vivo, New Zealand white rabbits; details: rabbits, 25 μmol Gd/kg bw versus standard dose 100 μmol/kg and example compound 6 at 25 μmol/kg
Experimental: Reference compound 1 (Gadovist®), as an approved representative of the Gadolinium-based MRI contrast agents, was used in both dose protocols (100 μmol Gd/kg bw and 25 μmol Gd/kg bw) and compared to example compound 6 (25 μmol Gd/kg bw).
The contrast-enhanced magnetic resonance angiography study was performed at a clinical 1.5 T Scanner (Magnetom Avanto Fit, Siemens Healthcare, Erlangen, Germany). For optimal signal exploitation, a spine in combination with a body-flex coil was used for the data acquisition. The study was performed on male New Zealand white rabbits (weight 3.6-3.9 kg, n=4, Charles River Kisslegg). The animals received all 3 contrast protocols within one imaging session. The order of the contrast protocols was randomized between the animals.
All animals are initially anesthetized using a body weight-adjusted intramuscular injection of a mixture (1+2) of xylazine hydrochloride (20 mg/mL, Rompun 2%, Bayer Vital GmbH, Leverkusen, Germany) and ketamine hydrochloride (100 mg/mL, Ketavet, Pfizer, Pharmacia GmbH, Berlin, Germany) using 1 mL/kg body weight. The continuous anesthesia of the intubated animals (endotracheal tube, Rueschelit Super Safe Clear, cuff 3.0 mm, Willy Ruesch A G, Kernen, Germany) is achieved by the intravenous injection of 0.9 mg propofol per kilogram per hour (10 mg/mL, Propofol-Lipuro 1%, B. Braun Melsungen A G, Melsungen, Germany). The continuous intravenous injection is performed using a MR infusion system (Continuum MR Infusion System, Medrad Europe B. V., A E Beek, Germany). The tracheal respiration (SV 900C, Maquet, Rastatt, Germany) is performed with 55% oxygen, forty breaths per minute, and a breathing volume of 4 mL per kilogram body weight per minute.
Based on a localizer MRI sequence oriented in coronal, axial, and sagittal directions the anatomic course of the aorta is acquired. A small intravenous test bolus (0.2 mL, Reference compound 1 followed by 1.3 mL saline) was administered to determine the time to peak interval (descending aorta) using a test bolus sequence. The MRA delay time between the start of the contrast injection and the start of image acquisition was calculated by subtracting the time to k-space center from the time to peak interval. For MRA a 3D FLASH sequence (TR=3.3 ms, TE=1.2 ms, flip=25°) was acquired before and after injection of the contrast agent considering the delay time. Both measurements were performed within expiratory breath hold. The time interval for the intraindividual comparison between the different contrast agent applications was twenty to thirty minutes.
Quantitative image evaluation was performed on the subtraction images (post contrast—baseline). […]

[3] = Dynamic CT diffusion phantom study (dialysis cassette in fetal bovine serum); format: physicochemical; details: dialysis cassette 20,000 MWCO, 20 mmol Gd/L, CT signal over 30 h
Experimental: The described dynamic CT diffusion study compares the ability of Examples 1-10 and Reference compounds 1 and 4 to pass a semipermeable membrane (20 kDa). A 128-row clinical CT device (SOMATOM Definition, 128; Siemens Healthcare, Forchheim, Germany) was used to monitor the diffusion through a semipermeable membrane at 100 kV and 104 mA. Single measurements were performed at 0 min, 1 min, 2 min, 3 min, 5 min, 10 min, 15 min, 20 min, 30 min, 45 min, 60 min, 2 h, 3 h, 5 h, 7 h, 22 h, 24 h, 30 h after placing the dialysis cassette (Slide-A-Lyser, 20,000 MWCO, 0.1-0.5 mL Capacity, Thermo Scientific, Roskilde, Denmark) filled with contrast agent in fetal bovine serum solution (FBS, Sigma, F7524). The images were reconstructed with a slice thickness of 2.4 mm and a B30 convolution kernel. The used concentration in the dialysis cassettes of the investigated Examples 1-10 and Reference compounds 1 and 4 was 20 mmol Gd/L.
The imaging results for all investigated Examples and the Reference compounds 1 and 4 for the time points 0 min and 30 h after placing the cassettes in the FBS solution are depicted in FIG. 1. For image analysis, regions of interest were manually drawn on 1 centrally located slice for each time point (a representative measurement region is indicated in FIG. 1: Image RC1).

[4] = 37 °C, cited from earlier work
[5] = Relaxivity measurements at 1.4 T (MiniSpec mq60, 60 MHz, 37 °C) in water and human plasma; format: physicochemical; details: 1.41 T, normalized to Gd
Experimental: Relaxivity Measurements at 1.4 T
Relaxivity measurements at 1.41 T were performed using a MiniSpec mq60 spectrometer (Bruker Analytik, Karlsruhe, Germany) operating at a resonance frequency of 60 MHz and a temperature of 37° C. The T1 relaxation times were determined using the standard inversion recovery (IR) method with a fixed relaxation delay of at least 5×T1. The variable inversion time (TI) was calculated automatically by the standard software of the MiniSpec mq60 (8 steps). The T2 measurements were done by using a Carr-Purcell-Meiboom-Gill (CPMG) pulse sequence, applying a relaxation delay of at least 5×T1.
Each relaxivity measurement was performed using three different Gd concentrations (3 concentrations between 0.05 and 2 mM). The T1 and T2 relaxation times of the example compounds 1 to 10 were measured in different media for example in water and human plasma. Human plasma preparation: For each experiment fresh blood was taken from a volunteer using 10 mL citrate-tubes (Sarstedt S-Monovette 02.1067.001, 10 mL, Citrate). The 10 mL citrate-tubes were carefully inverted 10 times to mix blood and anticoagulant and centrifuged for 15 minutes at 1811 g at room temperature (Eppendorf, Centrifuge 5810R).
The relaxivities ri (where i=1, 2) were calculated on the basis of the measured relaxation rates Ri in water and plasma: Ri=Ri(0)+ri[CGd], where Ri(0) represent the relaxation rate of the respective solvent and CGd the concentration of the compound normalized to the Gadolinium. The Gadolinium concentrations of the investigated solutions were verified by Inductively Coupled Plasma Mass Spectrometry (ICP-MS Agilent 7500a, Waldbronn, Germany).

[6] = Relaxivity measurements at 3.0 T (whole body MRI scanner, 37 °C) in water and human plasma; format: physicochemical; details: normalized to Gd, average ± standard deviation
Experimental: Relaxivity Measurements at 3.0 T
Relaxivity measurements at 3.0 T were performed with a whole body 3.0 T MRI Scanner (Philips Intera, Philips Healthcare, Hamburg, Germany) using a knee-coil (SENSE-Knee-8, Philips Healthcare, Hamburg, Germany). The sample tubes (CryoTubetm Vials, Thermo Scientific 1.8 mL, Roskilde, Denmark) were positioned in 3 rows of 4 and 5 tubes in a plastic holder in a box filled with water. The temperature was adjusted to 37° C. For the MRI sequence the shortest possible echo-time (TE) with 7.46 milliseconds was used. The inversion times were chosen to optimize the sequence to measure T1 values corresponding to the estimated T1 range of all relaxation times of contrast media containing solutions. The following inversion times (TIs) were applied: 50, 100, 150, 200, 300, 500, 700, 1000, 1400, 2100, 3200, and 4500 milliseconds. The sequence was run with a constant relaxation delay of 3.4 seconds after the registration of the last echo (variable TR in the range from 3450 to 7900 milliseconds). For details of the fit procedure, see Rohrer et. al. (Invest. Radiol. 2005; 40, 11: 715-724). The experimental matrix of the phantom measurement was 320×320.
The relaxivities were evaluated using three different concentrations of each compound (3 concentrations between 0.05 and 2 mM).
The T1 relaxation times of Example compounds were measured in water and human plasma. Human plasma preparation: For each experiment fresh blood was taken from a volunteer using 10 mL citrate-tubes (Sarstedt S-Monovette 02.1067.001, 10 mL, Citrate). The 10 mL citrate-tubes were carefully inverted 10 times to mix blood and anticoagulant and centrifuged for 15 minutes at 1811 g at room temperature (Eppendorf, Centrifuge 5810R).
The relaxivities ri (where i=1, 2) were calculated on the basis of the measured relaxation rates Ri in water and plasma: Ri=Ri(0)+ri[CGd], where Ri(0) represent the relaxation rate of the respective solvent and CGd the concentration of the compound normalized to the Gadolinium (Table 2).

[7] = Water solubility (exploratory, 10 mM Tris-HCl, 20 °C); format: physicochemical; details: water (10 mM Tris-HCl buffer), pH 7.4
Experimental: The exploratory water solubilities of the compounds were determined at room temperature (20° C.) in 0.5 mL buffer solution (10 mM Tris-HCl) in the microcentrifuge tubes (Eppendorf, 2.0 mL safe-lock caps). The solid compounds were added stepwise to the buffer solution. The suspension was mixed using a shaker (Heidolph Reax 2000) and treated 5 min in an ultrasound bath (Bandelin, Sonorex Super RK255H).

| SMILES | AUC∞ Area under the curve (to infinity) [1] [µmol·min/L] | MRT Mean residence time [1] [min] | V1 + V2 Volume, compartments V1 + V2 [1] [L/kg] | V2 Volume, compartment V2 [1] [L/kg] | Vd, ss Volume of distribution at steady state [1] [L/kg] | t½ α Half-life, compartment V1 [1] [min] | t½ β Half-life, compartment V2 [1] [min] | t½ γ Half-life, compartment V3 [1] [min] | vascular contrast at the reduced dose (25 μmol/kg) of the reference compound [2] | Diffusion half-live (20 kDa) [3] [h] | r1 human plasma ([4]; 1.5 T, bovine plasma instead of human plasma, from Rohrer et al.) [L/mmol/s] | r1 water ([4]; 1.5 T, from Rohrer et al.) [L/mmol/s] | r1 human plasma ([4]; 3.0 T, plasma, reference compounds marked ^ (Rohrer et al., bovine plasma per Table 1 footnote)) [L/mmol/s] | r1 water ([4]; 3.0 T, reference compounds marked ^ (Rohrer et al. per Table 1 footnote)) [L/mmol/s] | r1 human plasma ([5]; human plasma) [L/mmol/s] | r1 water ([5]; water) [L/mmol/s] | r1 human plasma ([6]; human plasma) [L/mmol/s] | r1 water ([6]; water) [L/mmol/s] | Solubility [7] [mg/100 mL] |
| --- | --- | --- | --- | --- | --- | --- | --- | --- | --- | --- | --- | --- | --- | --- | --- | --- | --- | --- | --- |
| O=C([O-])CN1CCN(CC(=O)[O-])CCN([C@H](CO)[C@H](O)CO)CCN(CC(=O)[O-])CC1.[Gd+3] (racemic) [RC1, gadobutrol, reference compound] | 11334 | 40.5 | 0.11 | 0.16 | 0.26 | 1.80 | 22.1 | 780 | considerable lower | 2.1 | 5.2 | 3.3 | 5.0 ± 0.3 | 3.2 ± 0.3 |  |  |  |  |  |
| CC(C)N(CC(=O)NCC(CNC(=O)CN(C(=O)CN1CCN(CC(=O)[O-])CCN(CC(=O)[O-])CCN(CC(=O)[O-])CC1)C(C)C)(CNC(=O)CN(C(=O)CN1CCN(CC(=O)[O-])CCN(CC(=O)[O-])CCN(CC(=O)[O-])CC1)C(C)C)CNC(=O)CN(C(=O)CN1CCN(CC(=O)[O-])CCN(CC(=O)[O-])CCN(CC(=O)[O-])CC1)C(C)C)C(=O)CN1CCN(CC(=O)[O-])CCN(CC(=O)[O-])CCN(CC(=O)[O-])CC1.[Gd+3].[Gd+3].[Gd+3].[Gd+3] [Example 5, Tetragadolinium [4,10-bis(carboxylatomethyl)-7-{3,13-diisopropyl-8,8-bis({[(isopropyl-{[4,7,10-tris(carboxylatomethyl)-1,4,7,10-tetraazacyclododecan-1-yl]acetyl}amino)-acetyl]amino}methyl)-2,5,11,14-tetraoxo-15-[4,7,10-tris(carboxylatomethyl)-1,4,7,10-tetraazacyclododecan-1-yl]-3,6,10,13-tetraazapentadec-1-yl}-1,4,7,10-tetraazacyclo-dodecan-1-yl]acetate] |  |  |  |  |  |  |  |  |  | 10.8 |  |  |  |  | 13.1 | 11.1 | 11.6 ± 0.4 | 10.2 ± 0.1 | >1000 |
